# Measurements from the supplement of paper PMC10307832.
# Tests used:
# Assay in all cases: relative viability (nuclei count vs DMSO), 5 days (fraction); higher = more cells survive
# [1] = compound: CN1C=C(C2=CC=CC=C21)/C=C\3/C4=C(C=CC=N4)NC3=O + O=C(CCCCCCC(=O)Nc1ccccc1)NO [Vorinostat] (partner 1 µM)
# How it was run: (§1)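 Cells from lung cancer lines were seeded into 1536-well plates and, one day later, dosed by pin tool. Treatments were either a single drug or a fixed dose of an anchor drug with five library-drug doses (not always all listed) in √10 steps. After 5 days, nuclei were stained in a one-step fixation (final 0.05% Triton X-100, 1% formaldehyde, 1 ug/ml Hoechst) and counted on 4× images, and relative viability is the treated-to-vehicle nuclei ratio, as the median of duplicate plates.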
# [2] = compound: CN1C=C(C2=CC=CC=C21)/C=C\3/C4=C(C=CC=N4)NC3=O + C[C@@H](Oc1cc(-c2cnn(C3CCNCC3)c2)cnc1N)c1c(Cl)ccc(F)c1Cl [Crizotinib] (partner 1 µM)
# How it was run: as §1
# Trametinib + Lapatinib = compound: CC(=O)Nc1cccc(-n2c(=O)n(C3CC3)c(=O)c3c(Nc4ccc(I)cc4F)n(C)c(=O)c(C)c32)c1 [Trametinib] + CS(=O)(=O)CCNCc1ccc(-c2ccc3ncnc(Nc4ccc(OCc5cccc(F)c5)c(Cl)c4)c3c2)o1 [Lapatinib] (partner 2 µM)
# How it was run: as §1
# [3] = compound: CN1C=C(C2=CC=CC=C21)/C=C\3/C4=C(C=CC=N4)NC3=O + CS(=O)(=O)N1CCN(Cc2cc3nc(-c4cccc5[nH]ncc45)nc(N4CCOCC4)c3s2)CC1 [Pictilisib] (partner 1 µM)
# How it was run: as §1
Cell Line,relative viability ([1]; first compound 0.02 µM),relative viability ([1]; first compound 0.06325 µM),relative viability ([1]; first compound 0.6325 µM),relative viability ([1]; first compound 2 µM),relative viability ([2]; first compound 0.02 µM),relative viability ([2]; first compound 0.06325 µM),relative viability ([2]; first compound 0.2 µM),relative viability ([2]; first compound 0.6325 µM),relative viability ([2]; first compound 2 µM),relative viability (Trametinib + Lapatinib; first compound 0.0025 µM),relative viability (Trametinib + Lapatinib; first compound 0.007906 µM),relative viability (Trametinib + Lapatinib; first compound 0.025 µM),relative viability (Trametinib + Lapatinib; first compound 0.07906 µM),relative viability (Trametinib + Lapatinib; first compound 0.25 µM),relative viability ([3]; first compound 0.02 µM),relative viability ([3]; first compound 0.06325 µM),relative viability ([3]; first compound 0.2 µM),relative viability ([3]; first compound 0.6325 µM),relative viability ([3]; first compound 2 µM),relative viability ([1]; first compound 0.2 µM)
HOP-62,0.565,0.543,0.576,0.547,0.902,0.938,0.789,0.918,1.01,0.949,0.903,0.387,0.39,0.104,0.729,1.05,0.475,0.627,0.937,
IA-LM,1.07,1.2,,0.927,0.732,0.724,0.668,0.615,0.521,0.251,0.31,0.101,0.136,0.0905,0.273,0.264,,0.347,0.363,1.04
LC-2-ad,0.67,0.661,0.706,0.669,0.439,0.468,,0.409,0.686,0.917,0.839,0.664,0.639,0.285,0.356,0.475,0.434,0.446,0.401,0.666
LCLC-97TM1,,0.621,0.766,0.77,0.232,,,0.331,0.419,0.666,0.944,0.666,0.3,0.138,0.159,,,0.216,0.131,0.467
LK-2,,0.263,0.231,0.315,,0.205,0.202,0.243,0.219,0.797,0.758,0.822,0.711,0.375,,0.364,0.458,0.453,0.557,0.199
LOU-NH91,0.816,0.851,0.809,0.848,0.74,0.649,0.672,0.709,0.724,0.745,0.736,0.603,0.753,0.414,0.466,0.455,0.481,0.498,0.491,0.789
LU99A,0.475,0.401,0.492,0.477,0.522,0.479,0.607,0.568,0.603,0.866,0.911,0.719,0.674,0.267,0.344,0.282,0.338,0.316,0.315,0.508
LXF-289,0.693,0.828,0.817,0.801,0.775,0.785,0.881,0.849,0.895,0.863,0.759,0.677,0.615,0.57,0.811,0.764,0.793,0.77,0.806,0.689
NCI-H23,0.579,0.518,0.612,0.474,0.453,0.504,,0.62,0.624,0.872,0.74,0.335,0.529,0.211,0.5,0.502,,0.451,0.485,0.537
NCI-H322M,0.855,0.821,0.904,0.828,0.827,0.841,0.876,0.902,0.933,0.59,0.469,0.443,0.388,0.455,0.431,0.552,0.498,0.478,0.542,0.712
NCI-H358,0.764,0.535,1.21,0.51,0.56,0.497,0.606,0.601,0.633,0.38,0.376,0.309,0.295,0.328,0.33,0.319,0.301,0.338,0.387,0.672
NCI-H460,0.958,0.655,0.37,0.545,0.994,0.99,0.932,,0.902,0.897,0.754,0.42,0.148,0.0413,0.508,0.324,0.285,0.292,0.335,0.685
NCI-H520,0.797,0.482,0.718,0.722,0.569,0.828,0.885,0.773,0.807,0.855,0.912,0.756,0.68,0.428,0.275,0.296,0.275,0.308,0.335,0.661
NCI-H596,0.642,0.653,0.589,0.595,0.932,1.01,0.936,0.89,0.891,0.918,0.817,0.807,0.833,0.412,0.333,0.322,0.421,0.392,0.396,0.484
NCI-H647,0.498,0.529,0.524,0.531,0.967,0.923,1.04,1.03,0.906,1.03,0.936,0.759,0.683,0.231,0.379,0.292,,0.324,0.312,0.676
NCI-H650,0.439,0.369,0.383,0.328,0.586,0.601,,0.771,0.797,0.885,1.19,0.845,0.825,0.498,0.826,0.922,,0.784,0.911,
NCI-H661,0.853,0.763,0.927,0.775,1.07,1.01,1.11,1.04,1.14,0.43,0.451,0.448,0.341,0.421,0.399,0.418,0.325,0.339,0.375,0.835
NCI-H727,1.02,1.21,1.23,1.35,0.835,0.614,0.691,0.81,0.808,0.606,0.415,0.291,0.297,0.216,0.363,0.304,0.208,0.299,0.484,0.903
NCI-H838,0.679,0.653,0.601,0.55,0.615,0.657,0.761,0.707,0.833,0.846,0.933,,0.634,0.428,0.311,0.351,0.464,0.4,0.381,0.591
NCI-H1355,0.581,0.581,0.513,0.534,0.909,0.97,0.992,0.675,0.819,0.838,0.767,0.369,0.532,0.4,0.365,0.332,0.287,0.238,0.372,0.653
NCI-H1437,0.955,0.823,0.804,0.71,0.878,0.898,0.989,0.915,1.14,0.673,0.278,0.17,0.178,0.209,0.432,0.399,0.466,0.403,0.493,0.857
NCI-H1650,0.548,0.532,0.549,0.554,0.908,0.889,0.856,1.06,1.05,0.899,0.714,0.567,0.568,0.151,0.539,0.561,0.436,0.505,0.573,0.566
NCI-H1651,0.656,0.573,0.563,0.537,0.804,0.905,0.876,0.819,0.895,0.757,0.74,0.66,0.531,0.452,0.495,0.706,0.628,0.524,0.728,0.571
NCI-H1666,0.902,0.909,0.926,0.991,0.847,0.822,0.704,1.17,0.927,0.354,0.414,0.405,0.387,0.265,0.552,0.322,0.318,0.272,0.26,1.06
NCI-H1734,0.73,0.712,0.796,0.747,0.665,0.677,,0.696,0.744,1.02,1.01,,1.03,0.517,0.432,0.454,,0.466,0.45,
NCI-H1755,0.601,0.751,0.584,0.643,0.855,0.802,0.827,0.836,0.919,0.969,0.897,0.849,0.871,0.863,0.405,0.342,0.302,0.365,0.37,0.477
NCI-H1915,0.502,0.501,0.442,0.493,0.767,0.873,0.87,1.07,0.973,1.01,0.929,0.873,0.538,0.253,0.973,0.871,0.831,0.961,0.97,0.513
NCI-H1944,0.471,0.5,0.568,0.528,0.939,0.995,,1.24,1.18,0.76,0.632,0.588,0.493,0.396,0.323,0.326,,0.294,0.314,
